According to patent publication US20250263404A1, “AMINOPYRIDINES AS ACTIVATORS OF PI3 KINASE” (UCL Business Ltd, priority 2021, published 2025):

Experiments:
mice = test: In vivo model of ischaemia reperfusion injury in mice; parameters: species or system mouse; conditions: 10 mg/kg via jugular vein
Experimental: Male C57/BL6 mice weighing 25-30 g were used throughout. Animals received humane care in accordance with the United Kingdom Home Office Guide on the Operation of Animal (Scientific Procedures) Act 1986, Project Licence PPL70/15358.
Animals were anaesthetised with intraperitoneal (i.p.) sodium pentobarbital at a dose of 100 mg/kg. The mice were intubated by tracheotomy and ventilated with room air using a small animal ventilator (MinVent, Type 845, Hugo Sachs Elektronik, Harvard Apparatus). The mice were then placed on a heating pad and the rectal temperature monitored and maintained at ˜37° C. using a temperature controller. During the experiments, both ECG and heart rate were continuously recorded using a PowerLab (Adinstrument, USA). […]
After 120 min reperfusion, the chest was re-opened, the heart was removed and cannulated via the thoracic aorta, and blood within the heart was washed out with saline. […] The total area of myocardium, the non-ischaemic area (which is stained with Evans blue), and the infarct area (i.e. the white area) of each slice were measured using Image-J software. The “area at risk” was calculated by subtraction of the non-ischaemic area (blue area) from the whole slice area and expressed as “percentage of the left ventricle”, and “infarct size” calculated as infarct area as a percentage of the area at risk. […]

PI3Kδ = molecular target: T1, PI3Kδ (Homo sapiens, UniProt O00329); test: ADP-Glo in vitro lipid kinase assay, PI3Kδ; assay type: biochemical
T1 construct: Full-length p110β/p85α and p110δ/p85α were cloned and expressed in a similar manner; Strep-tag followed by TEV protease site (N, cleaved yes); made in house; host or cells: Spodoptera frugiperda Sf9 (plasmids OP833 and OP809)
Experimental: The effect of 1938 on the in vitro lipid kinase activity of p85α in complex with p110α, p110β or p110δ (further referred to as PI3Kα, PI3Kβ and PI3Kδ) was tested. As a positive control, a bis-phosphorylated phosphopeptide (a PDGF-receptor-derived peptide phosphorylated on Tyr-740 and Tyr-751, hereafter referred to as pY peptide) was used to mimic engagement of the p85α SH2 domains with tyrosine-phosphorylated peptides in membrane-bound receptors and adaptor proteins, known to activate the PI3Kα complex.
Kinase reactions were performed with ADP-Glo kinase assay kit (Promega Corporation). The enzyme, substrate and compounds were diluted in reaction buffer (20 mM HEPES, 50 mM NaCl, 50 mM KCl, 3 mM MgCl2, 1 mM EGTA, 1 mM TCEP, pH 7.4). Final concentrations of PI3Kα and PI3Kδ used were 25 nM and 50 nM for PI3Kβ. […]
For compound profiling, the reaction mixture contained 2 μl PI3K enzyme, 2 μl compound and/or pY and 2 μl of liposome substrate mixed with ATP. […] Luminescence was read using a Sense (Hidex) plate reader. […]
For characterisation of the effects of 1938 on in vitro PI3K enzymology, all reactions were performed at room temperature with 384 white-polystyrene plates (Corning #3574). […] For enzyme kinetic calculations, data was expressed as velocity (pmol of ADP generated/sec). […]

T1 sequence (O00329 whole entry, species assumed): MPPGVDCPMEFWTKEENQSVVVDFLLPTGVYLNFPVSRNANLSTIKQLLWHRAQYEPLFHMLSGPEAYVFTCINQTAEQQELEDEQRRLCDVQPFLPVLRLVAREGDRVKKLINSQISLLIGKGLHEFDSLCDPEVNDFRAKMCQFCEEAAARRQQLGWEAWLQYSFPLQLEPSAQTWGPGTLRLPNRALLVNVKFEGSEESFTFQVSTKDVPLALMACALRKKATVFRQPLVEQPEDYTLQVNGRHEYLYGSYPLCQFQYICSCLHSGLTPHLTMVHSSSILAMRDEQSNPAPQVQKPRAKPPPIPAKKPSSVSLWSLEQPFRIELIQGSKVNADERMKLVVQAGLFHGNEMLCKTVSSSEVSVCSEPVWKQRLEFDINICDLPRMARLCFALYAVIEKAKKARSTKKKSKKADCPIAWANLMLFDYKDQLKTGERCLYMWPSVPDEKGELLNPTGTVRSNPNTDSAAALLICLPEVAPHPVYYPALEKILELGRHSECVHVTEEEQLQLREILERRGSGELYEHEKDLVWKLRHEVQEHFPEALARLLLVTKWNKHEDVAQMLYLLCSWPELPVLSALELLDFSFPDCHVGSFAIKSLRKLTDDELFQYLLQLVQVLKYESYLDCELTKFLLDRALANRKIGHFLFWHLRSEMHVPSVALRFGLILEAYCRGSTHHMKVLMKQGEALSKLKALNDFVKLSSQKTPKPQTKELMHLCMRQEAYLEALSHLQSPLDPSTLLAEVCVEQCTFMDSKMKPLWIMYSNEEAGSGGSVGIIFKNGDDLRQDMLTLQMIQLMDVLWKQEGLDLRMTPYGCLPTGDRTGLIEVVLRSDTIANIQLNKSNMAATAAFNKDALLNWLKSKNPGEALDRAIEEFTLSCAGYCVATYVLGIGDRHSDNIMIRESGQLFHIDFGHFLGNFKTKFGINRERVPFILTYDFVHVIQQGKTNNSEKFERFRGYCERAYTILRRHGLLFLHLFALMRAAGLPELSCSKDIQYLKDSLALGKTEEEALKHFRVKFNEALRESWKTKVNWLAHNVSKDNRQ
T1 sequence (P27986 whole entry partner, species assumed): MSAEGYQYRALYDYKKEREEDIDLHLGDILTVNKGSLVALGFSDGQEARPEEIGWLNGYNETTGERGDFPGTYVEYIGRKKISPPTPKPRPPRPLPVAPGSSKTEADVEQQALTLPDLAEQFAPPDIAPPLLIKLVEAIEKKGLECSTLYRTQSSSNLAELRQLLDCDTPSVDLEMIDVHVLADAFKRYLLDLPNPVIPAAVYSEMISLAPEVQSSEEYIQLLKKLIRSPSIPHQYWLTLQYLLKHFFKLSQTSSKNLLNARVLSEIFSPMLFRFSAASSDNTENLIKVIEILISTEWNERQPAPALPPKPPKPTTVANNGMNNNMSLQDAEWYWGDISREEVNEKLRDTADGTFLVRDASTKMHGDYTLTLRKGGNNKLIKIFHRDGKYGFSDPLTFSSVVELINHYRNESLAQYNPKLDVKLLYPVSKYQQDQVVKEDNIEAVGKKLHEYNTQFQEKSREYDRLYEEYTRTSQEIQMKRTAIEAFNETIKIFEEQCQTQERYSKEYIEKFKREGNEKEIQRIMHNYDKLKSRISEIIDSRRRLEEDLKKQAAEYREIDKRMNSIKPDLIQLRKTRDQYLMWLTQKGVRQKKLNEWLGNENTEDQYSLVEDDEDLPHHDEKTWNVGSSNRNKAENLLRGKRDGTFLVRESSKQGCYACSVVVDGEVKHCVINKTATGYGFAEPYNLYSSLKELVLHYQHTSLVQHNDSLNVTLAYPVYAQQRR

effect on in vitro lipid kinase activity of PI3Kδ (PI3Kδ): not PI3Kβ or PI3Kδ
SMILES: CCN1CCN(c2ccc(Nc3cc(Nc4cccc5c4N(C(C)=O)CC5)ccn3)cc2)CC1 [Example 1938]
pAKT^S473 levels in the hearts of mice (mice): corresponding increase in pAKT^S473 levels | cardioprotection in mice (mice; 15 min prior to reperfusion): significant cardioprotection
